This note sets out measurements from US9428542B2, “Lupane triterpenoid derivatives and pharmaceutical use thereof” (priority 2012, dated 2016).

In one data set the test system is MT-2 cells. Description: Compounds' cytotoxicity assay in MT-2 cells (CellTiter-Glo). Format: cell-based. More on the design: unit not given here. Conditions: toxicity in MT-2 cells, 3 days. The procedure:
3. Method for Compounds' Cytotoxicity Assay:
The MT-2 cells are diluted to a needed concentration. 90 μl of the MT-2 cells suspension was added into 384-well plates containing 10 μl of the tested compounds. Compounds were dissolved in DMSO and tested as 11 points 3-fold serial dilutions. After addition of cells to compound plates, plates were placed to humidified 5% CO2 37 incubator for 3 days. The Luciferase activity was measured by CellTiter-Glo® Luminescent Cell Viability Assay kit (Promega Corp., WI, USA).
(§1) TC50 is referred to the toxicity in MT-2 cells by the compounds tested at 50% concentration; IC50 is referred to the inhibiting HIV-1IIIB replication in MT-2 cells by the compounds tested at 50% concentration; Therapeutic Index (TI)=TC50/IC50.
In general terms: ATP-based viability assays read luminescence as a measure of living cells.

In another data set the test system is HIV-1IIIB. Put plainly: HIV-1 full replication assay (HIV-1IIIB-infected MT-2 cells, supernatant read out on TZM-bl cells, β-Gal). Conditions: inhibiting HIV-1IIIB replication in MT-2 cells, 3 days; for IC50: Human immunodeficiency virus 1, MT2, 72 h, read-out: IC50 (PM). The data set is classed as cell-based. Here is the method: The antiviral activity of the compounds of the present invention was determined in a HIV-1 full replication assay.
In this assay, MT-2 cells that are infected with HIV-1IIIB were co-cultured with different concentration of the tested compounds for 3 days and then supernatant is transferred into new 384-well plates containing TZM-bl cells (also called JC53-bl). TZM-bl cells that could be infected by various kinds of HIV-1 strains stably express a great amount of HIV-1 receptor, co-receptor CD4 molecular, and co-receptor CXCR4 and CCR5. TZM-bl cells harbor LTR-luciferase and β-gal two report genes. The expression of luciferase and β-gal reporter directed by HIV-1 LTR can be activated by Tat protein generated after HIV infection, and the quantity of expression is proportional to the quantity of HIV-1. Compounds that interfere with virus replication in MT-2 cells, maturation of the virus, or post-entry steps in the HIV lifecycle decrease the luciferase signal or β-gal signal. In this experiment, BVM (Bevirimat, PA-457) is used as a positive control drug.
Method for Inhibiting HIV-1 Replication Assay:
The MT-2 cells are infected at a Multiciplicity (MOI) of 0.01 TCID50, and then the MT-2 cells suspension was diluted to a needed concentration. 90 μl of the MT-2 cells suspension from above was added into 384-well plates containing 10 μl of the tested compounds.
Compounds were dissolved in DMSO and tested as 11 points 3-fold serial dilutions. After addition of cells to compound plates, plates were placed to humidified 5% CO2 37 incubator for 3 days. 10 μl of cells culture supernatant from the incubated plates was transferred into new black 384-well plates.
Adjusted the TZMb1 cells concentration and 40 μl of TZMb1 cells was added into each well in the black 384-well plates. After addition of the TZMb1 cells to the black plates, black plates were placed to humidified 5% CO2 37 incubator for 24 h, then β-Gal activity was measured.
The anti viral activity %=(measured number-lowest mean number)/(highest mean number-lowest mean number)×100. The IC50 values were calculated by Median Equation and the IC curve was generated by Graphpad Prism V 5.03.
as §1

As to `CC(C)C1=C2[C@H]3CC[C@@H]4[C@@]5(C)CC[C@H](OC(=O)CC(C)(C)C(=O)O)C(C)(C)[C@@H]5CC[C@@]4(C)[C@]3(C)CC[C@@]2([C@@H](O)c2nnc(-c3ccc(Cl)cc3)o2)CC1=O` [Compound 127-1], the “TC50 (PM)” value with MT-2 cells is 200. In addition, the IC50 (as a rule, the concentration needed to halve the response being measured) in the data set with HIV-1IIIB came out at 1.6 nM.

`CC(C)C1=C2[C@H]3CC[C@@H]4[C@@]5(C)CC[C@H](OC(=O)CC(C)(C)C(=O)O)C(C)(C)[C@@H]5CC[C@@]4(C)[C@]3(C)CC[C@@]2(c2cnc(-c3ccc(Cl)cc3)o2)CC1=O` [Compound 77]: in the data set on MT-2 cells, the “TC50 (PM)” value is 200. Moreover, in the data set with HIV-1IIIB, the IC50 worked out at 159 nM.

On to `CC(C)C1=C2[C@H]3CC[C@@H]4[C@@]5(C)CC[C@H](OC(=O)CC(C)(C)C(=O)O)C(C)(C)[C@@H]5CC[C@@]4(C)[C@]3(C)CC[C@@]2(c2cc(=O)n(-c3ccc(C#N)cc3)n2C)CC1=O` [Compound 98-4], for which, in the data set on MT-2 cells, the “TC50 (PM)” value was 36. For the same molecule, in the data set with HIV-1IIIB, the IC50 was 0.81 nM.

In the case of `CC(C)C1=C2[C@H]3CC[C@@H]4[C@@]5(C)CC[C@H](OC(=O)CC(C)(C)C(=O)O)C(C)(C)[C@@H]5CC[C@@]4(C)[C@]3(C)CC[C@@]2(c2cc(=O)n(CC(=O)O)n2C)CC1=O` [Compound 91-5], the “TC50 (PM)” value in the data set with MT-2 cells worked out at 160. In addition, the IC50 (PM) with HIV-1IIIB was 2110 nM.

`CCn1c([C@@]23CC[C@]4(C)[C@H](CC[C@@H]5[C@@]6(C)CC[C@H](OC(=O)CC(C)(C)C(=O)O)C(C)(C)[C@@H]6CC[C@]54C)C2=C(C(C)C)C(=O)C3)cc(=O)n1-c1ccc(Cl)cc1` [Compound 98-5]: the “TC50 (PM)” value in the data set on MT-2 cells was 13. The concentration for half-maximal inhibition (IC50) with HIV-1IIIB is at most 0.17 nM.

For `CC(C)C1=C2[C@H]3CC[C@@H]4[C@@]5(C)CC[C@H](OC(=O)CC(C)(C)C(=O)O)C(C)(C)[C@@H]5CC[C@@]4(C)[C@]3(C)CC[C@@]2(c2cc(=O)n(Cc3ccccc3)n2C)CC1` [Compound 89-2], the “TC50 (PM)” value with MT-2 cells stood at 37. Moreover, the IC50 in the data set on HIV-1IIIB was 58.4 nM.

Take `CC(C)C1=C2[C@H]3CC[C@@H]4[C@@]5(C)CC[C@H](OC(=O)CC(C)(C)C(=O)O)C(C)(C)[C@@H]5CC[C@@]4(C)[C@]3(C)CC[C@@]2(c2cc(=O)n(-c3ccc(Cl)cn3)n2C)CC1=O` [Compound 98-7]: the “TC50 (PM)” value in the data set on MT-2 cells worked out at 200. Moreover, in the data set with HIV-1IIIB, the IC50 is at most 0.17 nM.

On to `CC(C)C1=C2[C@H]3CC[C@@H]4[C@@]5(C)CC[C@H](OC(=O)CC(C)(C)C(=O)O)C(C)(C)[C@@H]5CC[C@@]4(C)[C@]3(C)CC[C@@]2(Cc2nnc(-c3ccc(C#N)cn3)o2)CC1=O` [Compound 22-15], for which the “TC50 (PM)” value in the data set with MT-2 cells stood at 34. In addition, the IC50 with HIV-1IIIB stood at 2.1 nM.

As to `CC(C)C1=C2[C@H]3CC[C@@H]4[C@@]5(C)CC[C@H](OC(=O)CC(C)(C)C(=O)O)C(C)(C)[C@@H]5CC[C@@]4(C)[C@]3(C)CC[C@@]2([C@@H](O)c2nnc(-c3ccc(Cl)cn3)o2)CC1=O` [Compound 127-3], the “TC50 (PM)” value with MT-2 cells worked out at 33. Also, the IC50 with HIV-1IIIB was determined as 0.6 nM.

Consider `CNC(=O)Cn1c(=O)cc([C@@]23CC[C@]4(C)[C@H](CC[C@@H]5[C@@]6(C)CC[C@H](OC(=O)CC(C)(C)C(=O)O)C(C)(C)[C@@H]6CC[C@]54C)C2=C(C(C)C)C(=O)C3)n1C` [Compound 91-7], for which, in the data set on MT-2 cells, the “TC50 (PM)” value amounted to 68. Besides, the half-maximal inhibitory concentration (IC50) with HIV-1IIIB was 0.7 nM.

For the molecule `CC(C)C1=C2[C@H]3CC[C@@H]4[C@@]5(C)CC[C@H](OC(=O)CC(C)(C)C(=O)O)C(C)(C)[C@@H]5CC[C@@]4(C)[C@]3(C)CC[C@@]2(c2cc(=O)n(-c3ccc(Cl)cc3)n2CCN(C)C)CC1=O` [Compound 156-1], in the data set with MT-2 cells, the “TC50 (PM)” value worked out at 19. The IC50 in the data set on HIV-1IIIB is at most 0.17 nM.

In the case of `CC(C)C1=C2[C@H]3CC[C@@H]4[C@@]5(C)CC[C@H](OC(=O)CC(C)(C)C(=O)O)C(C)(C)[C@@H]5CC[C@@]4(C)[C@]3(C)CC[C@@]2(c2cc(=O)n(CC(=O)N(C)C)n2C)CC1=O` [Compound 91-8], the “TC50 (PM)” value in the data set with MT-2 cells is given as 48. In the data set on HIV-1IIIB, the IC50 is 3.3 nM.

Consider `CC(C)C1=C2[C@H]3CC[C@@H]4[C@@]5(C)CC[C@H](OC(=O)CC(C)(C)C(=O)O)C(C)(C)[C@@H]5CC[C@@]4(C)[C@]3(C)CC[C@@]2(Nc2nnc(-c3ccc(Cl)cc3)o2)CC1=O` [Compound 141-1], for which, in the data set with MT-2 cells, the “TC50 (PM)” value is given as 26. In addition, the IC50 with HIV-1IIIB came out at 5.5 nM.

Consider `CC(C)C1=C2[C@H]3CC[C@@H]4[C@@]5(C)CC[C@H](OC(=O)CC(C)(C)C(=O)O)C(C)(C)[C@@H]5CC[C@@]4(C)[C@]3(C)CC[C@@]2(Cc2nnc(-c3ccc(Cl)cc3)n2CCN)CC1=O` [Compound 116-4], for which the “TC50 (PM)” value with MT-2 cells is 33. The half-inhibitory concentration (IC50) in the data set on HIV-1IIIB worked out at 2.5 nM.

`CC(C)C1=C2[C@H]3CC[C@@H]4[C@@]5(C)CC[C@H](OC(=O)CC(C)(C)C(=O)O)C(C)(C)[C@@H]5CC[C@@]4(C)[C@]3(C)CC[C@@]2([C@H](O)c2nnc(-c3ccc(Cl)cc3)o2)CC1=O` [Compound 127-2]: in the data set on MT-2 cells, the “TC50 (PM)” value is on record as 45. In addition, in the data set with HIV-1IIIB, the concentration for half-maximal inhibition (IC50) turned out to be 25 nM.
